Source: ChEMBL document CHEMBL5096234, “Discovery, Optimization, and Evaluation of Selective CDK4/6 Inhibitors for the Treatment of Breast Cancer” (J Med Chem, 2022)
Calls of active or inactive are those of the source. No cut-off for these calls is given here.

Columns and labels:
[1] = Inhibition of CDK1/cyclin B (unknown origin) in presence of ATP by time resolved-FRET assay; design: species or system Homo sapiens
[2] = biological target: CDK2/Cyclin A2 (Homo sapiens, UniProt P24941); assay: Inhibition of CDK2/Cyclin A (unknown origin) in presence of ATP by time resolved-FRET assay; format: protein-complex assay
[3] = biological target: CDK4/Cyclin D3 (Homo sapiens, UniProt P11802); assay: Inhibition of CDK4/cyclin-D3 (unknown origin) in presence of ATP by time resolved-FRET assay; format: protein-complex assay
[4] = biological target: CDK7/Cyclin H/MNAT1 (Homo sapiens, UniProt P50613); assay: Inhibition of CDK7/cyclin H/MAT1 (unknown origin) in presence of ATP by time resolved-FRET assay; format: protein-complex assay
[5] = biological target: CDK9/cyclin T1 (Homo sapiens, UniProt P50750); assay: Inhibition of CDK9/Cyclin T1 (unknown origin) in presence of ATP by time resolved-FRET assay; format: protein-complex assay
[6] = tested on: ZR-75-1; assay: Antiproliferative activity against human ZR-75-1 cells assessed as cell growth inhibition incubated for 72 hrs by CCK-8 assay; format: functional
[7] = tested on: MCF7; assay: Antiproliferative activity against human MCF7 cells assessed as inhibition of cell growth at 1.5 to 6 uM incubated for 5 days by CCK-8 assay; format: functional, cell-based; details: dose 1.5-6 µM, time 5.0 day
[8] = tested on: T47D; assay: Inhibition of clone formation in human T47D cells at 1 to 8 uM by crystal voilet staining based analysis; format: functional, cell-based; details: dose 1-8 µM, time 2.0 weeks
[9] = tested on: MCF7; assay: Induction of cell cycle arrest in human MCF7 cells assessed as accumulation of cells at G2 phase at 6 uM incubated for 24 hrs by propidium iodide staining based flow cytometry analysis (reference value: 29.66%); format: functional
[10] = tested on: T47D; assay: Induction of cell cycle arrest in human T47D cells assessed as accumulation of cells at G1 phase at 2 uM incubated for 24 hrs by propidium iodide staining based flow cytometry analysis (reference value: 69.55 %); format: functional
[11] = tested on: T47D; assay: Induction of cell cycle arrest in human T47D cells assessed as accumulation of cells at G1 phase at 1 uM incubated for 24 hrs by propidium iodide staining based flow cytometry analysis (reference value: 69.55 %); format: functional
[12] = tested on: T47D; assay: Induction of cell cycle arrest in human T47D cells assessed as accumulation of cells at G2 phase at 2 uM incubated for 24 hrs by propidium iodide staining based flow cytometry analysis (reference value: 16.57%); format: functional
[13] = biological target: T1, Retinoblastoma-associated protein (Homo sapiens) (UniProt P06400); assay: Inhibition of RB phosphorylation in human T47D cells at 1 to 4 uM incubated for 24 hrs by Western blot analysis; format: cell-based; details: dose 1-4 µM
T1 sequence (whole entry): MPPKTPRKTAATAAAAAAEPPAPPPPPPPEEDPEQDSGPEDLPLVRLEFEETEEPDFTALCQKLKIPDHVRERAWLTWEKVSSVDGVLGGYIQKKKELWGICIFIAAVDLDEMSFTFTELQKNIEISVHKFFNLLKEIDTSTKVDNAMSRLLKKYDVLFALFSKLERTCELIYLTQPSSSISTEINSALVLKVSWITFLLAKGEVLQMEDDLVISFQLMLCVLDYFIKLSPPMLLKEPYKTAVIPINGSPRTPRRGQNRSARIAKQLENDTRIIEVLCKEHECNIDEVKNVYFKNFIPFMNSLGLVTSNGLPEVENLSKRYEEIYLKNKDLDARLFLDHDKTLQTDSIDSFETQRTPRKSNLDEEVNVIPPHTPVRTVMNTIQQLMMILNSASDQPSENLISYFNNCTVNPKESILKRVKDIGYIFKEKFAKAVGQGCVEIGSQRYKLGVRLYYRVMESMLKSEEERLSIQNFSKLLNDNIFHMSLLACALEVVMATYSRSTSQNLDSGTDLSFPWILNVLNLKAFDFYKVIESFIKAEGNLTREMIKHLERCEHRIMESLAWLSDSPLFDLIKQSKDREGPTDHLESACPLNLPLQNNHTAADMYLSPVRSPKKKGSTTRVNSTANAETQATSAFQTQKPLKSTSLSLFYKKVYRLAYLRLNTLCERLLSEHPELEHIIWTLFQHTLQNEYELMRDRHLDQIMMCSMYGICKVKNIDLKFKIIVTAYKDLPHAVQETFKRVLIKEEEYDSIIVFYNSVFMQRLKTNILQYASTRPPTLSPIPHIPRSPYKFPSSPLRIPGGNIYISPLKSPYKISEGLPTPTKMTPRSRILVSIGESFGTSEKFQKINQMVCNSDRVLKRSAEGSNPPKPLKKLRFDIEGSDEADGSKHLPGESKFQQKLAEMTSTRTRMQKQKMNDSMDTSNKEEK

[14] = tested on: MCF7; assay: Downregulation cyclin D1 level in human MCF7 cells incubated for 24 hrs by Western blot analysis; format: functional, cell-based; details: dose 1.5-5 µM, DDE = dose-dependent effect
[15] = tested on: T47D; assay: Downregulation cyclin D1 level in human T47D cells incubated for 24 hrs by Western blot analysis; format: functional, cell-based; details: dose 1-4 µM, DDE = dose-dependent effect
[16] = Tmax in Sprague-Dawley rat 1 mg/kg, iv by LC/MS/MS analysis; format: ADME, organism-based; details: in vivo
[17] = Half life in Sprague-Dawley rat 1 mg/kg, iv by LC/MS/MS analysis; format: ADME, organism-based; details: in vivo
[18] = Cmax in Sprague-Dawley rat 10 mg/kg, po by LC/MS/MS analysis; format: ADME, organism-based; design: dose 10 mg/kg, route po; details: in vivo
[19] = AUC (0 to infinity) in Sprague-Dawley rat 10 mg/kg, po by LC/MS/MS analysis; format: ADME, organism-based; design: time infinity, dose 10 mg/kg, route po; details: in vivo
[20] = Tmax in Sprague-Dawley rat 10 mg/kg, po by LC/MS/MS analysis; format: ADME, organism-based; details: in vivo
[21] = Acute toxicity in ICR mouse assessed as change in liver weight at 1000 to 5000 mg/kg, po administered as single dose and measured every 2 days for 14 days; format: organism-based; details: in vivo, 336 h, dose 1000-5000 mg/kg, time 14 day
[22] = Acute toxicity in ICR mouse assessed as change in spleen weight at 1000 to 5000 mg/kg, po administered as single dose and measured every 2 days for 14 days; format: organism-based; details: in vivo, 336 h, dose 1000-5000 mg/kg, time 14 day
[23] = Acute toxicity in ICR mouse assessed as change in lung weight at 1000 to 5000 mg/kg, po administered as single dose and measured every 2 days for 14 days; format: organism-based; details: in vivo, 336 h, dose 1000-5000 mg/kg, time 14 day
[24] = Acute toxicity in ICR mouse assessed as change in heart kidney at 1000 to 5000 mg/kg, po administered as single dose and measured every 2 days for 14 days; format: organism-based; details: in vivo, 336 h, dose 1000-5000 mg/kg, time 14 day
[25] = Acute toxicity in ICR mouse assessed as spleen lesions at 5000 mg/kg, po administered as single dose and measured every 2 days for 14 days by H and E staining based analysis; format: organism-based; details: in vivo, 336 h, time 14 day
[26] = tested on: MCF7; assay: Antitumor activity against human MCF7 cells xenografted in BALB/c mouse assessed as inhibition of tumor growth at 150 mg/kg, po administered once daily and measured every 2 days for 23 days; format: functional, organism-based; details: time 23.0 day
[27] = Toxicity in BALB/c mouse xenografted with human MCF7 cells assessed as increase in body weight at 100 to 150 mg/kg, po administered once daily and measured every 2 days for 23 days; format: organism-based; details: in vivo, 552 h, dose 100-150 mg/kg, time 23 day

CDK9/cyclin T1, sequence (O60563 whole entry): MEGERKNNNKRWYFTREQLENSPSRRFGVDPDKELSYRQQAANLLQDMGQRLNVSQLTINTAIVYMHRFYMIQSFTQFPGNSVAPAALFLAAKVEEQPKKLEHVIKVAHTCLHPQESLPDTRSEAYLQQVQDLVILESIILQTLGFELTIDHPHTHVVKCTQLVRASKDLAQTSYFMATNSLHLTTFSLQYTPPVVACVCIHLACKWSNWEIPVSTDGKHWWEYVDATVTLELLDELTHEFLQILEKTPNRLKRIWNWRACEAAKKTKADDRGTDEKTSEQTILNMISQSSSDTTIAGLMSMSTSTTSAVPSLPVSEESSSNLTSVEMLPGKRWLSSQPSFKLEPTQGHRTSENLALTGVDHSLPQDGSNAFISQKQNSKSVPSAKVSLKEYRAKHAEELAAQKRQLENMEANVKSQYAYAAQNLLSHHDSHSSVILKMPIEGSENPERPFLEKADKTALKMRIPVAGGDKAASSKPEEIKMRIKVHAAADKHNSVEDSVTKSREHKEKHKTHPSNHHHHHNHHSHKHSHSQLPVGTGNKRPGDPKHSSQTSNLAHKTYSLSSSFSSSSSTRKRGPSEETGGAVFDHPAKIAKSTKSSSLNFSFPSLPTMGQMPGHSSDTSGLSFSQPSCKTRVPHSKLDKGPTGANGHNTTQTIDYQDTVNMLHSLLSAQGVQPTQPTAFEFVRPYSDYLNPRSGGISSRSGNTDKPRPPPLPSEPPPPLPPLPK
CDK9/cyclin T1, sequence (P50750 whole entry): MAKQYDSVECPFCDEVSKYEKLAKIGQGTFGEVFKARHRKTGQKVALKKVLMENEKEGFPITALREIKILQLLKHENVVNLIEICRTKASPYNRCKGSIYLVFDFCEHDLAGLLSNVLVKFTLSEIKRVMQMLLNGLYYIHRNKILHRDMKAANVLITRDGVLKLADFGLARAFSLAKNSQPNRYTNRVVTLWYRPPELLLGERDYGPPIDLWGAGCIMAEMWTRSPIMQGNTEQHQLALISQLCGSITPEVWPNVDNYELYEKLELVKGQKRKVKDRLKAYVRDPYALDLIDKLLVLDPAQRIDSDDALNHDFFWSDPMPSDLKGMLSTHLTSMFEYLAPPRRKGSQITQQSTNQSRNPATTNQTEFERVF
CDK7/Cyclin H/MNAT1, sequence (P51946 whole entry): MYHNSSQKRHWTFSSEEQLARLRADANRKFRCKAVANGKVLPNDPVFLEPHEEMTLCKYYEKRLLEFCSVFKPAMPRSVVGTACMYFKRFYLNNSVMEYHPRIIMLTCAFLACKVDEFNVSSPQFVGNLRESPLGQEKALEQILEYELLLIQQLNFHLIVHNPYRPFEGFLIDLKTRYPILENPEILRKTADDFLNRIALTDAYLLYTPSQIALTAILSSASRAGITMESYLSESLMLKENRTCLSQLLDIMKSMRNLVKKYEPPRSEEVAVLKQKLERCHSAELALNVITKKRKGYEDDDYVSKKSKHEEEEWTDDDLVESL
CDK7/Cyclin H/MNAT1, sequence (P50613 whole entry): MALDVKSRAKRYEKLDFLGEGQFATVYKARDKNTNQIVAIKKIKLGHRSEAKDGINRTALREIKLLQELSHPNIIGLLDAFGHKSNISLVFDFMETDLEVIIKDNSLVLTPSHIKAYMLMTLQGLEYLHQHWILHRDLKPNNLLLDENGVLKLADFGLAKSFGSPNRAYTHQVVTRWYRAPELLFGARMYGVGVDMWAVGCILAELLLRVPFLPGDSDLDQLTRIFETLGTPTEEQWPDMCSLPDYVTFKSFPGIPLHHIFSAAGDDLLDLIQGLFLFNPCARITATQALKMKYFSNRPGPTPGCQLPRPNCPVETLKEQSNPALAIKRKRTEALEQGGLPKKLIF
CDK7/Cyclin H/MNAT1, sequence (P51948 whole entry, further chain): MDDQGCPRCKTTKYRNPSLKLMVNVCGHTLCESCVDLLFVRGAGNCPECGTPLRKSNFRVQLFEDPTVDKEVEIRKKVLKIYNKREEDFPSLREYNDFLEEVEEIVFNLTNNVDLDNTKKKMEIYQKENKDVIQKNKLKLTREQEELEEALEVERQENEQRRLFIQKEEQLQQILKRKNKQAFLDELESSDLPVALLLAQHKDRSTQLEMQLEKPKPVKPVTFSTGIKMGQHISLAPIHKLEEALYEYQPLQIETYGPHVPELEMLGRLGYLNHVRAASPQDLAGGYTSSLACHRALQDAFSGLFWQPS
CDK4/Cyclin D3, sequence (P11802 whole entry): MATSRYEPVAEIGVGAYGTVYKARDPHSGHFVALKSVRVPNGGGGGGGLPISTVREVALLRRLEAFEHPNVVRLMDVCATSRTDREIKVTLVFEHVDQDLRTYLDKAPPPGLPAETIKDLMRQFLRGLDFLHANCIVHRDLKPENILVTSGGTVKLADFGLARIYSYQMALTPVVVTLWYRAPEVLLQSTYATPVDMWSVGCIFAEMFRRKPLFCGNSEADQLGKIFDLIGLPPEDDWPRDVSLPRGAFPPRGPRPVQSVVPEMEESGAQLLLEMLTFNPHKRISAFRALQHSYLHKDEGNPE
CDK4/Cyclin D3, sequence (P30281 whole entry, further chain): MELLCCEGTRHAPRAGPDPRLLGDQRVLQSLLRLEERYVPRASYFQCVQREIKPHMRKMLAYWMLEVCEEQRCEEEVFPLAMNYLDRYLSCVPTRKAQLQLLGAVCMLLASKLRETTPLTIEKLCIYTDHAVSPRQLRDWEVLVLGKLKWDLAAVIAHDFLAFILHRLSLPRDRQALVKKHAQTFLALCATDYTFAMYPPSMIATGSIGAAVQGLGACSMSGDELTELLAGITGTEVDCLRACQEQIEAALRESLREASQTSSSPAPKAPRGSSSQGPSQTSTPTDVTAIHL

Question: What does the source list for CCN1CCc2cc(-c3nc(Nc4ccc(N5CCNCC5)cn4)ncc3F)ccc2C1=O?
Answer: IC50 [1]: > 10000 nM; IC50 [2]: 1050 nM; IC50 [3]: 10 nM; IC50 [4]: 2600 nM; IC50 [5]: 2660 nM; GI50 [6]: 3200 nM; inhibition [7]: Active; inhibition [8]: Active; Activity [9]: 10.67%; Activity [10]: 85.48%; Activity [11]: 83.14%; Activity [12]: 6.06%; inhibition [13]: Active; Activity [14]: Dde; Activity [15]: Dde; Tmax [16]: 1.98 min; half-life [17]: 2.62 h; Cmax [18]: 144 ng/mL; AUC(0-inf) [19]: 1610 ng·h/mL; Tmax [20]: 6 h; Activity [21]: Non-Toxic; Activity [22]: Non-Toxic; Activity [23]: Non-Toxic; Activity [24]: Non-Toxic; Activity [25]: Non-Toxic; inhibition [26]: Active; Activity [27]: Non-Toxic
